Experimental data as given in the NIST ThermoML archive (doi:10.1016/j.fluid.2013.07.010).
Numbers after ± are expanded uncertainties.

Experiments:
[1] = Crystal; DTA
[2] = Molar enthalpy of transition or fusion; conditions: Crystal; DSC

Nc1ccc(Oc2ccc(N)cc2)cc1 [4,4'-diaminodiphenyl ether]
Normal melting temperature [1]: 189.52 ± 0.39 °C | Molar enthalpy of transition or fusion [2]: 9.05 ± 0.406 kcal/mol
